Data from patent publication US20240238423A9, “TETRAHYDROISOQUINOLINE HETEROBIFUNCTIONAL BCL-XL DEGRADERS” (Treeline Biosciences, Inc., priority 2022, published 2024).

Molecular target: T1, Human BCL-XL protein (N-terminal HiBiT tagged BCL-XL in HT1080 cells) (Homo sapiens, UniProt Q07817)
T1 construct: expressed in transfected cells; host or cells: HT-1080 (ATCC CCL-121), stably transduced with lentivirus pLV-UBC-N-HiBiT-BCL-XL-PGK-puro and selected with puromycin
Assay: HiBiT based degradation assay
Format: cell-based
Settings: HT1080 cells expressing HiBiT-BCL-XL, 24 h; for Ymin (24 h): BCL-XL degradation normalized with DMSO control; for DC50: BCL-XL degradation, read-out: EC50 (24 h)
Method in brief: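 This HiBiT degradation assay measured loss of BCL-XL in HT1080 cells that stably express an N-terminal HiBiT-BCL-XL fusion delivered by lentivirus. Cells were added to compound-spotted 384-well plates, and luminescence was read on a PHERAstar FSX reader. Signal was expressed relative to DMSO controls, curves were fitted by four-parameter logistic regression, and for hook-shaped curves the Ymin point served as the bottom plateau when calculating EC50.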

T1 sequence (Q07817 whole entry): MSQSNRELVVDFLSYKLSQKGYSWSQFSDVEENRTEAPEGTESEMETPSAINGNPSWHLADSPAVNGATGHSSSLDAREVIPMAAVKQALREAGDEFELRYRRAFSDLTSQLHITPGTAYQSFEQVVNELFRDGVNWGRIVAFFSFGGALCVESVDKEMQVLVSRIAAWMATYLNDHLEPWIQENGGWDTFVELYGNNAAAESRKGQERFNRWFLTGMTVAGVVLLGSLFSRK

Compound	Ymin (24 h)	DC50
Cc1c(OCCCC2CCN(CC(=O)Nc3cc4c(cc3F)c(C3CCC(=O)NC3=O)nn4C)CC2)cccc1-c1ccc(N2CCc3cccc(C(=O)Nc4nc5ccccc5s4)c3C2)nc1C(=O)O (stereo not shown) [Compound 295, 6-[8-(1,3-benzothiazol-2-ylcarbamoyl)-3,4-dihydro-1H-isoquinolin-2-yl]-3-[3-[3-[1-[2-[[3-(2,6-dioxo-3-piperidyl)-5-fluoro-1-methyl-indazol-6-yl]amino]-2-oxo-ethyl]-4-piperidyl]propoxy]-2-methyl-phenyl]pyridine-2-carboxylic acid]	B (50% ≤ Ymin < 70%)	100 to 1000 nM
Cc1c(O[C@H]2CC[C@H](CCCCN3CCN(c4cc5c(cc4F)c(C4CCC(=O)NC4=O)nn5C)CC3)CC2)cccc1-c1ccc(N2CCc3cccc(C(=O)Nc4nc5ccccc5s4)c3C2)nc1C(=O)O (stereo partly shown) [Compound 296a, 6-(8-(benzo[d]thiazol-2-ylcarbamoyl)-3,4-dihydroisoquinolin-2(1H)-yl)-3-(3-(((1s,4r)-4-(4-(4-(3-(2,6-dioxopiperidin-3-yl)-5-fluoro-1-methyl-1H-indazol-6-yl)piperazin-1-yl)butyl)cyclohexyl)oxy)-2-methylphenyl)picolinic acid]	A (Ymin < 50%)	< 100 nM
Cc1c(O[C@H]2CC[C@H](CCCCN3CCN(c4ccc5c(C6CCC(=O)NC6=O)nn(C)c5c4)C[C@H]3C)CC2)cccc1-c1ccc(N2CCc3cccc(C(=O)Nc4nc5ccccc5s4)c3C2)nc1C(=O)O (stereo partly drawn) [Compound 297a, 6-(8-(benzo[d]thiazol-2-ylcarbamoyl)-3,4-dihydroisoquinolin-2(1H)-yl)-3-(3-(((1s,4r)-4-(4-((2R)-4-(3-(2,6-dioxopiperidin-3-yl)-1-methyl-1H-indazol-6-yl)-2-methylpiperazin-1-yl)butyl)cyclohexyl)oxy)-2-methylphenyl)picolinic acid]	A (Ymin < 50%)	< 100 nM
Cc1c(O[C@H]2CC[C@H](CCCCN3CCN(c4ccc5c(C6CCC(=O)NC6=O)nn(C)c5c4)C[C@@H]3C)CC2)cccc1-c1ccc(N2CCc3cccc(C(=O)Nc4nc5ccccc5s4)c3C2)nc1C(=O)O (stereo partly drawn) [Compound 297b, 6-(8-(benzo[d]thiazol-2-ylcarbamoyl)-3,4-dihydroisoquinolin-2(1H)-yl)-3-(3-(((1r,4r)-4-(4-((2S)-4-(3-(2,6-dioxopiperidin-3-yl)-1-methyl-1H-indazol-6-yl)-2-methylpiperazin-1-yl)butyl)cyclohexyl)oxy)-2-methylphenyl)picolinic acid]	A (Ymin < 50%)	< 100 nM
Cc1c(O[C@H]2CC[C@H](CCCCN3CCC(c4cccc5c(C6CCC(=O)NC6=O)nn(C)c45)CC3)CC2)cccc1-c1ccc(N2CCc3cccc(C(=O)Nc4nc5ccccc5s4)c3C2)nc1C(=O)O (stereo partly shown) [Compound 298a, 6-(8-(benzo[d]thiazol-2-ylcarbamoyl)-3,4-dihydroisoquinolin-2(1H)-yl)-3-(3-(((1s,4r)-4-(4-(4-(3-(2,6-dioxopiperidin-3-yl)-1-methyl-1H-indazol-7-yl)piperidin-1-yl)butyl)cyclohexyl)oxy)-2-methylphenyl)picolinic acid]	A (Ymin < 50%)	< 100 nM
Cc1c(O[C@H]2CC[C@H](CCCCN3CCC(c4ccc5c(C6CCC(=O)NC6=O)nn(C)c5c4)CC3)CC2)cccc1-c1ccc(N2CCc3cccc(C(=O)Nc4nc5ccccc5s4)c3C2)nc1C(=O)O (stereo partly shown) [Compound 299a, 6-(8-(benzo[d]thiazol-2-ylcarbamoyl)-3,4-dihydroisoquinolin-2(1H)-yl)-3-(3-(((1s,4r)-4-(4-(4-(3-(2,6-dioxopiperidin-3-yl)-1-methyl-1H-indazol-6-yl)piperidin-1-yl)butyl)cyclohexyl)oxy)-2-methylphenyl)picolinic acid]	A (Ymin < 50%)	< 100 nM
Cc1c(O[C@H]2CC[C@H](CCCCN3CCN(c4ccc5c(C6CCC(=O)NC6=O)nn(C)c5c4)[C@H](C)C3)CC2)cccc1-c1ccc(N2CCc3cccc(C(=O)Nc4nc5ccccc5s4)c3C2)nc1C(=O)O (stereo partly drawn) [Compound 300a, 6-(8-(benzo[d]thiazol-2-ylcarbamoyl)-3,4-dihydroisoquinolin-2(1H)-yl)-3-(3-(((1s,4r)-4-(4-((3R)-4-(3-(2,6-dioxopiperidin-3-yl)-1-methyl-1H-indazol-6-yl)-3-methylpiperazin-1-yl)butyl)cyclohexyl)oxy)-2-methylphenyl)picolinic acid]	A (Ymin < 50%)	< 100 nM
Cc1c(O[C@H]2CC[C@H](CCCCN3CCN(c4ccc5c(C6CCC(=O)NC6=O)nn(C)c5c4)[C@@H](C)C3)CC2)cccc1-c1ccc(N2CCc3cccc(C(=O)Nc4nc5ccccc5s4)c3C2)nc1C(=O)O (stereo partly drawn) [Compound 300b, 6-(8-(benzo[d]thiazol-2-ylcarbamoyl)-3,4-dihydroisoquinolin-2(1H)-yl)-3-(3-(((1r,4r)-4-(4-((3S)-4-(3-(2,6-dioxopiperidin-3-yl)-1-methyl-1H-indazol-6-yl)-3-methylpiperazin-1-yl)butyl)cyclohexyl)oxy)-2-methylphenyl)picolinic acid]	A (Ymin < 50%)	< 100 nM
Cc1c(O[C@H]2CC[C@H](CCCN3CCN(c4ccc5c(C6CCC(=O)NC6=O)nn(C)c5c4)[C@@H](C(F)(F)F)C3)CC2)cccc1-c1ccc(N2CCc3cccc(C(=O)Nc4nc5ccccc5s4)c3C2)nc1C(=O)O (stereo partly drawn) [Compound 301a, 6-(8-(benzo[d]thiazol-2-ylcarbamoyl)-3,4-dihydroisoquinolin-2(1H)-yl)-3-(3-(((1s,4r)-4-(3-((3R)-4-(3-(2,6-dioxopiperidin-3-yl)-1-methyl-1H-indazol-6-yl)-3-(trifluoromethyl)piperazin-1-yl)propyl)cyclohexyl)oxy)-2-methylphenyl)picolinic acid]	A (Ymin < 50%)	< 100 nM
Cc1c(O[C@H]2CC[C@H](CCCN3CCN(c4ccc5c(C6CCC(=O)NC6=O)nn(C)c5c4)[C@H](C(F)(F)F)C3)CC2)cccc1-c1ccc(N2CCc3cccc(C(=O)Nc4nc5ccccc5s4)c3C2)nc1C(=O)O (stereo partly drawn) [Compound 301b, 6-(8-(benzo[d]thiazol-2-ylcarbamoyl)-3,4-dihydroisoquinolin-2(1H)-yl)-3-(3-(((1r,4r)-4-(3-((3S)-4-(3-(2,6-dioxopiperidin-3-yl)-1-methyl-1H-indazol-6-yl)-3-(trifluoromethyl)piperazin-1-yl)propyl)cyclohexyl)oxy)-2-methylphenyl)picolinic acid]	B (50% ≤ Ymin < 70%)	< 100 nM
Cc1c(OCCCC2CCN(CC(=O)Nc3ccc4c(C5CCC(=O)NC5=O)nn(C)c4c3F)CC2)cccc1-c1ccc(N2CCc3cccc(C(=O)Nc4nc5ccccc5s4)c3C2)nc1C(=O)O (stereo not shown) [Compound 302, 6-[8-(1,3-benzothiazol-2-ylcarbamoyl)-3,4-dihydro-1H-isoquinolin-2-yl]-3-[3-[3-[1-[2-[[3-(2,6-dioxo-3-piperidyl)-7-fluoro-1-methyl-indazol-6-yl]amino]-2-oxo-ethyl]-4-piperidyl]propoxy]-2-methyl-phenyl]pyridine-2-carboxylic acid]	B (50% ≤ Ymin < 70%)	< 100 nM
